# Measurements reported in patent US9049864B2, “Pyridazinone herbicidal compounds” (Syngenta Limited, priority 2012, dated 2015).
# Columns and labels:
# Assay in all cases: Post-emergence herbicidal glasshouse test, percentage damage to the plant
# Assay type in all cases: in vivo
# Conditions in all cases: post-emergence, 1000 g/ha, evaluated after 13 days
# Setaria faberi (SETFA) = test system: Setaria faberi (SETFA)
# Protocol: (§1) Seeds of a variety of test species are sown in standard soil in pots:—Solanum nigrum (SOLNI), Amaranthus retoflexus (AMARE), Setaria faberi (SETFA), Alopecurus myosuroides (ALOMY), Echinochloa crus-galli (ECHCG), Ipomoea hederacea (IPOHE). After 8 days cultivation (post-emergence) under controlled conditions in a glasshouse (at 24/16° C., day/night; 14 hours light; 65% humidity), the plants are sprayed with an aqueous spray solution derived from the formulation of the technical active ingredient in acetone/water (50:50) solution containing 0.5% Tween 20 (polyoxyethelyene sorbitan monolaurate, CAS RN 9005-64-5). Compounds are applied at 1000 g/ha. The test plants are then grown in a glasshouse under controlled conditions in a glasshouse (at 24/16° C., day/night; 14 hours light; 65% humidity) and watered twice daily. After 13 days, the test is evaluated for the percentage damage caused to the plant. The biological activities are shown in the following table on a five point scale (5=80-100%; 4=60-79%; 3=40-59%; 2=20-39%; 1=0-19%). A comparative experiment is conducted to compare the biological efficacy of a compound of the present invention with those of WO 2011/045271. The test is performed as outlined above using the following compounds. Three different application rates are employed (250 g/ha, 500 g/ha and 1000 g/ha).
# [1] = test system: Echinochloa crus-galli (ECHCG)
# Protocol: as §1
# [2] = test system: Amaranthus retoflexus (AMARE)
# Protocol: as §1
# Solanum nigrum (SOLNI) = test system: Solanum nigrum (SOLNI)
# Protocol: as §1
# [3] = test system: Ipomoea hederacea (IPOHE)
# Protocol: as §1
# [4] = test system: Alopecurus myosuroides (ALOMY)
# Protocol: as §1
Compound,"POST Application SETFA, percentage damage (five point scale) (Setaria faberi (SETFA))","POST Application ECHCG, percentage damage (five point scale) [1]","POST Application AMARE, percentage damage (five point scale) [2]","POST Application SOLNI, percentage damage (five point scale) (Solanum nigrum (SOLNI))","POST Application IPOHE, percentage damage (five point scale) [3]","POST Application ALOMY, percentage damage (five point scale) [4]"
CC1=NN(C)C(=O)C(n2c(Br)c(Br)c3cc(Br)ccc32)C1=O (stereo not drawn) [Compound 1.022],1 (1=0-19%),2 (2=20-39%),3 (3=40-59%),5 (5=80-100%),5 (5=80-100%),1 (1=0-19%)
CC1=NN(C)C(=O)C(n2c(Br)c(Br)c3ccc(Br)cc32)C1=O (stereo not drawn) [Compound 1.023],1 (1=0-19%),3 (3=40-59%),5 (5=80-100%),5 (5=80-100%),5 (5=80-100%),2 (2=20-39%)
CC1=NN(C)C(=O)C(n2c(Br)c(Br)c3ccccc32)C1=O (stereo not drawn) [Compound 1.024],2 (2=20-39%),2 (2=20-39%),5 (5=80-100%),5 (5=80-100%),5 (5=80-100%),1 (1=0-19%)
CC1=NN(C)C(=O)C(n2cc(Br)c3ccccc32)C1=O (stereo not drawn) [Compound 1.025],1 (1=0-19%),1 (1=0-19%),4 (4=60-79%),5 (5=80-100%),3 (3=40-59%),1 (1=0-19%)
CC1=NN(C)C(=O)C(n2c(Br)c(Cl)c3ccccc32)C1=O (stereo not drawn) [Compound 1.026],3 (3=40-59%),4 (4=60-79%),5 (5=80-100%),5 (5=80-100%),5 (5=80-100%),2 (2=20-39%)
CC1=NN(C)C(=O)C(n2cc(Cl)c3ccccc32)C1=O (stereo not drawn) [Compound 1.027],1 (1=0-19%),3 (3=40-59%),4 (4=60-79%),5 (5=80-100%),4 (4=60-79%),1 (1=0-19%)
CN1N=C(C#N)C(=O)C(n2c(Cl)c(Cl)c3ccccc32)C1=O (stereo not drawn) [Compound 2.001],2 (2=20-39%),2 (2=20-39%),3 (3=40-59%),5 (5=80-100%),5 (5=80-100%),1 (1=0-19%)
CN1N=C(C(F)F)C(=O)C(n2c(Cl)c(Cl)c3ccccc32)C1=O (stereo not drawn) [Compound 2.002],1 (1=0-19%),1 (1=0-19%),5 (5=80-100%),5 (5=80-100%),5 (5=80-100%),1 (1=0-19%)
"CSC1=NN(C)C(=O)C(n2c(Cl)c(Cl)c3ccccc32)C1=O (stereo not drawn) [Compound 2.003, 4-(2,3-dichloroindol-1-yl)-2-methyl-6-methylsulfanyl-pyridazine-3,5-dione]",1 (1=0-19%),1 (1=0-19%),2 (2=20-39%),2 (2=20-39%),4 (4=60-79%),1 (1=0-19%)
CN1N=C(S(C)(=O)=O)C(=O)C(n2c(Cl)c(Cl)c3ccccc32)C1=O (stereo not drawn) [Compound 2.004],1 (1=0-19%),1 (1=0-19%),2 (2=20-39%),2 (2=20-39%),2 (2=20-39%),1 (1=0-19%)
